Reference: ChEMBL document CHEMBL1909046, “DrugMatrix in vitro pharmacology data”

How the values were obtained:
[1] = DRUGMATRIX: GABAA, Flunitrazepam, Central radioligand binding (ligand: [3H] Flunitrazepam); format: cell membranes, Rattus norvegicus, Wistar, Brain, Membrane; conditions: Not Active = under 50% inhibition at 10 µM
[2] = target: C-C chemokine receptor type 5 (Homo sapiens, UniProt P51681); format: cell membranes, Membrane; conditions: hek293; also: in other assays of this panel Not Active means under 50% inhibition at 10 µM
[3] = DRUGMATRIX: Phosphodiesterase PDE3 enzyme inhibition (substrate: [3H]cAMP + cAMP); format: tissue-based, Homo sapiens; conditions: platelet; Not Active = under 50% inhibition at 10 µM
[4] = target: T1, Vasoactive intestinal polypeptide receptor 1 (Homo sapiens, UniProt P32241); format: cell membranes, Membrane; conditions: ht-29; also: in other assays of this panel Not Active means under 50% inhibition at 10 µM
T1 sequence (P32241 whole entry): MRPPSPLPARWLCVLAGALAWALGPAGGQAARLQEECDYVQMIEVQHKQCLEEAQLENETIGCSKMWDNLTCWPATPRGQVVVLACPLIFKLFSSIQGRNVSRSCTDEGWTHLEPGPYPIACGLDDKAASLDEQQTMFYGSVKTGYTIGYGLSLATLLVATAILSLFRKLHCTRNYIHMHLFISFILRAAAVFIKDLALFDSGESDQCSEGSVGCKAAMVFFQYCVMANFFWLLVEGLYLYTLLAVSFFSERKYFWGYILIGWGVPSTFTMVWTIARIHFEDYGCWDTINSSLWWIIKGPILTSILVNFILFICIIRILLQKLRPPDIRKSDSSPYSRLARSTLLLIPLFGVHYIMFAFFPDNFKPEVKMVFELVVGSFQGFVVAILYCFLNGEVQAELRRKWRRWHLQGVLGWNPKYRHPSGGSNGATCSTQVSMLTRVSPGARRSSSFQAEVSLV

[5] = target: Epidermal growth factor receptor (Homo sapiens, UniProt P00533); assay: DRUGMATRIX: Protein Tyrosine Kinase, EGF Receptor enzyme inhibition (substrate: Poly(Glu:Tyr)); format: cell-based, Insect cells; conditions: insect cells; Not Active = under 50% inhibition at 10 µM
Cytochrome P450 3A4 = Cytochrome P450 3A4 (Homo sapiens, UniProt P08684); conditions: bti-tn-5b1-4; also: in other assays of this panel Not Active means under 50% inhibition at 10 µM
Cannabinoid receptor 1 = Cannabinoid receptor 1 (Homo sapiens, UniProt P21554); format: cell membranes, Membrane; conditions: chem-1; also: in other assays of this panel Not Active means under 50% inhibition at 10 µM
[6] = target: Beta-1 adrenergic receptor (Homo sapiens, UniProt P08588); assay: DRUGMATRIX: Adrenergic beta1 radioligand binding (ligand: [125I] Cyanopindolol); format: cell membranes, CHO-K1, Membrane; conditions: cho-k1; Not Active = under 50% inhibition at 10 µM
Sequence of Beta-1 adrenergic receptor (P08588 whole entry): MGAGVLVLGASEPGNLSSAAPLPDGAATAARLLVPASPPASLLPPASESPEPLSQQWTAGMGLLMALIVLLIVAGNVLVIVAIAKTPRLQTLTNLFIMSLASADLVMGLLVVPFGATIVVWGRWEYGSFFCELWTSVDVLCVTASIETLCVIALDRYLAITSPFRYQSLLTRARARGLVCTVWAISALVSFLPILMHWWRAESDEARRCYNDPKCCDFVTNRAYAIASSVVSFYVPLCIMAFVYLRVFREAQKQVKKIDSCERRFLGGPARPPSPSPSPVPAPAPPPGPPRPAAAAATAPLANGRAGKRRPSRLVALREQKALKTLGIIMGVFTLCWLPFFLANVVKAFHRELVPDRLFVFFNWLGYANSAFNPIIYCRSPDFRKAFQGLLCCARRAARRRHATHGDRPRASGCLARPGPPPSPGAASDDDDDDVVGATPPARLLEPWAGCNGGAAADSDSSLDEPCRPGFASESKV

Sequence of Epidermal growth factor receptor (P00533 whole entry): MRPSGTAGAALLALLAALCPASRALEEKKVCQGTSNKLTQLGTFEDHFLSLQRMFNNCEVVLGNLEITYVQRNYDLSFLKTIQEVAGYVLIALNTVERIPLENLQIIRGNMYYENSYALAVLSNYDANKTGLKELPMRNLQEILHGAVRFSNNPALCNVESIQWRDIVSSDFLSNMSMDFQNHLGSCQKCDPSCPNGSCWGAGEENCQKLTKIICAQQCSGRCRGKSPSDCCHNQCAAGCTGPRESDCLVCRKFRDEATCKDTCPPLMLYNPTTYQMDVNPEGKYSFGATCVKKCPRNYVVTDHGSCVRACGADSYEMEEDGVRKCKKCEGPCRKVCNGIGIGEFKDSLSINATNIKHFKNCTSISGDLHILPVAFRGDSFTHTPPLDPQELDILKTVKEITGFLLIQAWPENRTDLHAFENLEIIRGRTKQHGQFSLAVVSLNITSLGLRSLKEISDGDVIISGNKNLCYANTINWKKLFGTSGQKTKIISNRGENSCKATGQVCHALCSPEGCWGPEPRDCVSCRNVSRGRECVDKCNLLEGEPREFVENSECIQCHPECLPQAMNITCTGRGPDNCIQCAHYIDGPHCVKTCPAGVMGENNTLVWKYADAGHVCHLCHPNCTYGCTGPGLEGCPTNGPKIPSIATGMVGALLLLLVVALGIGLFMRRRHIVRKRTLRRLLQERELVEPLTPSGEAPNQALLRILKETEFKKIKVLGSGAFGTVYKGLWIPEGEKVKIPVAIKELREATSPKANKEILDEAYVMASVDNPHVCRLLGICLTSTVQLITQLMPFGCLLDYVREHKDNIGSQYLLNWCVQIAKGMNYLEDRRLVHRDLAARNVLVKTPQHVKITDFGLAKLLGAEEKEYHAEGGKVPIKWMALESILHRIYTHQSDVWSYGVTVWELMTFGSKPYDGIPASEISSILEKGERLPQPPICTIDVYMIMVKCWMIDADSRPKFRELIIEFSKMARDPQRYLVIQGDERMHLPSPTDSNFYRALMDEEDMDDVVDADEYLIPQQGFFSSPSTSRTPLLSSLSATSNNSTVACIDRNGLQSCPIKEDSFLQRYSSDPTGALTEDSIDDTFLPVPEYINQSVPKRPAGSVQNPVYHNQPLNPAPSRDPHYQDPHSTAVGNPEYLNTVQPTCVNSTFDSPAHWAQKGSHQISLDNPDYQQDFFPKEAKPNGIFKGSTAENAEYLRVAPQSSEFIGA
Sequence of C-C chemokine receptor type 5 (P51681 whole entry): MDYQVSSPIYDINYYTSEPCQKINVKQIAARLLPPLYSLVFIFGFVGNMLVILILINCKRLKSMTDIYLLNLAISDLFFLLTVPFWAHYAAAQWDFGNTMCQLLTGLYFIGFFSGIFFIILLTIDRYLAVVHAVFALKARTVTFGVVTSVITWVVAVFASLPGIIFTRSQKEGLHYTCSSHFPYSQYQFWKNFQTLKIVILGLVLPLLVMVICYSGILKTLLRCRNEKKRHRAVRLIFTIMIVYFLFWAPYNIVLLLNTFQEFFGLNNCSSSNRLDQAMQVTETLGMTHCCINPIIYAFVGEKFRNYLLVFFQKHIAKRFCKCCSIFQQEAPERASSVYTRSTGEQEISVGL
Sequence of Cannabinoid receptor 1 (P21554 whole entry): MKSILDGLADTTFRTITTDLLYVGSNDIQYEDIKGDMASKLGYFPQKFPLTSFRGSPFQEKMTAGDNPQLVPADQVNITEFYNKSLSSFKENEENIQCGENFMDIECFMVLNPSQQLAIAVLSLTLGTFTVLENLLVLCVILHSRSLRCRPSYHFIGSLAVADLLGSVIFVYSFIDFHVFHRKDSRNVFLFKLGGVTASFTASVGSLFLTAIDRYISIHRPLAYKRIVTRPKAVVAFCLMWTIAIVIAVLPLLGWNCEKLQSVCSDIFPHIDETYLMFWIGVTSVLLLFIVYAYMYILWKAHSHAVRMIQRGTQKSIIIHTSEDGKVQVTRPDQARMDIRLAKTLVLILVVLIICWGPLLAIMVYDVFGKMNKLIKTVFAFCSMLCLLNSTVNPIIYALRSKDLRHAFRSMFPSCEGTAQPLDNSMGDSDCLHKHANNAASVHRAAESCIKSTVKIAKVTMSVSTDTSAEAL
Sequence of Cytochrome P450 3A4 (P08684 whole entry): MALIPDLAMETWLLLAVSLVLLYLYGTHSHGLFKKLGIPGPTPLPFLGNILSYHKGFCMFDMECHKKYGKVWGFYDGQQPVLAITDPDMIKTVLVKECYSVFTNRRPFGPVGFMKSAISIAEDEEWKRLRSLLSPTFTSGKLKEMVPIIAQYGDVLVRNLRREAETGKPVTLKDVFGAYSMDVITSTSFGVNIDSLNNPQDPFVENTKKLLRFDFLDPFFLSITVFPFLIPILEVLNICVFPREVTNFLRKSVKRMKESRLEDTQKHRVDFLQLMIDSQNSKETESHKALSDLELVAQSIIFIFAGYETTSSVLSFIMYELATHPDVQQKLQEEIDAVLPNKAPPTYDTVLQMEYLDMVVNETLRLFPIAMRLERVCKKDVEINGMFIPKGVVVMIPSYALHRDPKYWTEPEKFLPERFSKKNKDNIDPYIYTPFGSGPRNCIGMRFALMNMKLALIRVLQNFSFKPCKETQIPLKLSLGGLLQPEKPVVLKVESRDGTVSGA

CC[C@@]1(O)C[C@H](O[C@H]2C[C@H](N(C)C)[C@H](O[C@H]3C[C@H](O)[C@H](O[C@H]4CCC(=O)[C@H](C)O4)[C@H](C)O3)[C@H](C)O2)c2c(cc3c(c2O)C(=O)c2c(O)cccc2C3=O)[C@H]1C(=O)OC [ACLARUBICIN]
Not Active: IC50 [1] | Ki [1] | IC50 [2] | IC50 [3] | Ki [3] | IC50 [4] | IC50 [5] | IC50 (Cytochrome P450 3A4) | Ki (Cytochrome P450 3A4) | IC50 (Cannabinoid receptor 1) | IC50 [6]

Nc1nc2c(ncn2COCCO)c(=O)[nH]1 [ACYCLOVIR]
Not Active: IC50 [1] | Ki [1] | IC50 [2] | IC50 [3] | Ki [3] | IC50 [4] | IC50 [5] | IC50 (Cytochrome P450 3A4) | Ki (Cytochrome P450 3A4) | IC50 (Cannabinoid receptor 1) | IC50 [6]

Cc1c(C)c2c(c(C)c1O)CC[C@@](C)(CCC[C@H](C)CCC[C@H](C)CCCC(C)C)O2 [ALPHA-TOCOPHEROL]
Not Active: IC50 [1] | Ki [1] | IC50 [2] | IC50 [3] | Ki [3] | IC50 [4] | IC50 [5] | IC50 (Cytochrome P450 3A4) | Ki (Cytochrome P450 3A4) | IC50 (Cannabinoid receptor 1) | IC50 [6]

NCCCCCC(=O)O [AMINOCAPROIC ACID]
Not Active: IC50 [1] | Ki [1] | IC50 [2] | IC50 [3] | Ki [3] | IC50 [4] | IC50 [5] | IC50 (Cytochrome P450 3A4) | Ki (Cytochrome P450 3A4) | IC50 (Cannabinoid receptor 1) | IC50 [6]

CCC1(c2ccc(N)cc2)CCC(=O)NC1=O (stereo unspecified) [AMINOGLUTETHIMIDE]
Not Active: IC50 [1] | Ki [1] | IC50 [2] | IC50 [3] | Ki [3] | IC50 [4] | IC50 [5] | IC50 (Cytochrome P450 3A4) | Ki (Cytochrome P450 3A4) | IC50 (Cannabinoid receptor 1) | IC50 [6]

Cc1ccc(/N=C/N(C)/C=N/c2ccc(C)cc2C)c(C)c1 [AMITRAZ]
Not Active: IC50 [1] | Ki [1] | IC50 [2] | IC50 [3] | Ki [3] | IC50 [4] | IC50 [5] | IC50 (Cytochrome P450 3A4) | Ki (Cytochrome P450 3A4) | IC50 (Cannabinoid receptor 1) | IC50 [6]

CCOC(=O)C1=C(COCCN)NC(C)=C(C(=O)OC)C1c1ccccc1Cl (stereo unspecified) [AMLODIPINE]
Not Active: IC50 [1] | Ki [1] | IC50 [2] | IC50 [3] | Ki [3] | IC50 [4] | IC50 [5] | IC50 (Cytochrome P450 3A4) | Ki (Cytochrome P450 3A4) | IC50 (Cannabinoid receptor 1) | IC50 [6]

COc1ccc(C[C@H]2NC[C@H](O)[C@H]2OC(C)=O)cc1 [ANISOMYCIN]
Not Active: IC50 [1] | Ki [1] | IC50 [2] | Ki [2] | IC50 [3] | Ki [3] | IC50 [4] | Ki [4] | IC50 [5] | Ki [5] | IC50 (Cytochrome P450 3A4) | Ki (Cytochrome P450 3A4) | IC50 (Cannabinoid receptor 1) | Ki (Cannabinoid receptor 1) | IC50 [6] | Ki [6]

Nc1ncn([C@@H]2O[C@H](CO)[C@@H](O)[C@H]2O)c(=O)n1 [AZACITIDINE]
Not Active: IC50 [1] | Ki [1] | IC50 [2] | IC50 [3] | Ki [3] | IC50 [4] | IC50 [5] | IC50 (Cytochrome P450 3A4) | Ki (Cytochrome P450 3A4) | IC50 (Cannabinoid receptor 1) | IC50 [6]

CN(C)C(=O)Oc1cc(OC(=O)N(C)C)cc(C(O)CNC(C)(C)C)c1 (stereo unspecified) [BAMBUTEROL]
Not Active: IC50 [1] | Ki [1] | IC50 [2] | IC50 [3] | Ki [3] | IC50 [4] | IC50 [5] | IC50 (Cytochrome P450 3A4) | Ki (Cytochrome P450 3A4) | IC50 (Cannabinoid receptor 1) | IC50 [6]

c1ccc2c(c1)c1cccc3ccc4cccc2c4c31 [BENZO[E]PYRENE]
Not Active: IC50 [1] | Ki [1] | IC50 [2] | IC50 [3] | Ki [3] | IC50 [4] | IC50 [5] | IC50 (Cytochrome P450 3A4) | Ki (Cytochrome P450 3A4) | IC50 (Cannabinoid receptor 1) | IC50 [6]
